Assay results as given in patent US4320052A, “Derivatives of A-30912A nucleus” (Eli Lilly and Company, priority 1980, dated 1982).
Converted amounts (≈) assume the structure as drawn. “And” between values parts separate entries of the source, which are not always exact repeats. Identical values can stand only once. Like-named read-outs stand apart in the source and are kept apart here. Numbered stars: 1 amine (or outer) side, 2 acyl side, 3 side chain; on linkers, the order of the positions; unused ones are H or OH. Bridge positions count the residues as written; N and C are the ends. Square brackets hold non-standard residues; d marks the D form. Peptide text beside a SMILES is read from it. * marks the point of attachment. Orn(4R-OH,5R-OH) = O=C([C@H](C[C@@H](O)[C@@H](O)N[*:3])N[*:1])[*:2]; hTyr(3S-OH,4S-OH) = N[C@H](C(=O)O)[C@H](O)[C@@H](O)c1ccc(O)cc1; Pro(3S-OH,4S-Me) = C[C@H]1CN[C@H](C(=O)O)[C@H]1O; Docosanoyl = CCCCCCCCCCCCCCCCCCCCCC(=O)*; Nonadecanoyl = CCCCCCCCCCCCCCCCCCC(=O)*; Arachidoyl = CCCCCCCCCCCCCCCCCCCC(=O)*; X1 = CC/C=C\C/C=C\C/C=C\CCCCCCCC(=O)*; Hyp = O=C(O)[C@@H]1C[C@@H](O)CN1; Tridecanoyl = CCCCCCCCCCCCC(=O)*

Key:
[1] = system: Saccharomyces pastoranius X-52; assay: Agar plate disc diffusion test (zone of inhibition); type: cell-based, Saccharomyces pastorianus
Protocol: (§1) Tables II and III give the results of the testing in vitro of the compounds of Examples 1-16 by agar-plate disc-diffusion methods. In Table II activity is measured by the size (diameter in mm.) of the observed zone of inhibition of the microorganism produced by the test compound. In Table III, activity is measured by the minimal inhibitory concentration (MIC) of the substance (μg/dic) required to inhibit growth of the test organism. Table IV gives the results of the testing in vitro of the n-tridecanoyl derivative of A30912A nucleus (Formula III, R is n-C12 H25) against five strains of Candida albicans by the agar dilution method. In […] activity is measured by the minimal inhibitory concentration (MIC) of the substance (μg/ml) required to inhibit the test organism.
(§2) ^(a) Compounds were tested as suspension in methanol at a
(§3) concentration of 1 mg/ml. by dipping a 7mm disc into the suspension and
(§4) placing it on the agar surface. Incubation: 24-48 hours at 25-37°

Candida albicans A-26 [2] = assay: as above; type: cell-based; settings: suspension in methanol 1 mg/ml, 7mm disc; 24-48 hours at 25-37° C.
Protocol: as §1, §2, §3, §4

Neurospora crassa 846 = assay: as above; type: cell-based
Protocol: as §1, §2, §3, §4

[3] = system: Trichophyton mentagraphytes A-23; assay: as above; type: cell-based, Trichophyton mentagrophytes
Protocol: as §1, §2, §3, §4

Candida albicans A-26 [4] = assay: Agar plate disc diffusion test (MIC); type: cell-based; settings: 0.01M sodium borate pH 7.5; 20 μg/disc top, twofold dilutions; 24 hours, 30° C.
Protocol: as §1
(§5) *Compounds were suspended in 0.01M sodium borate solution, pH 7.5. The
(§6) compounds were tested at 20 μg/disc at top level and at twofold
(§7) dilutions until end points were reached. Incubation: 24 hours; 30°

[5] = system: Trichophyton mentagrophytes #6; assay: Agar plate disc diffusion test (MIC); type: cell-based; settings: 0.01M sodium borate pH 7.5; 20 μg/disc top, twofold dilutions; 24 hours, 30° C.
Protocol: as §1, §5, §6, §7

Candida albicans = assay: Agar dilution test against strains of Candida albicans (MIC); type: cell-based
Protocol: as §1

Candida albicans A-26 [6] = assay: In vivo activity against Candida albicans A-26 infection in mice; parameters: species or system mice infected with Candida albicans A-26; settings: Candida albicans, A26, sc, 24 h; for minimal effective dose: read-out: Lowest Active Dose
Protocol: The results of in vivo tests to evaluate the effectiveness of the compound of Examples 1-16 against an infection caused by Candida albicans A-26 in mice are given in Table V, where activity is measured by the ED50 value (the dose in mg/kg. required to cure 50% of the test animals). Where an ED50 value was not obtained, activity is indicated by the lowest dose at which a significant anti-fungal effect is observed. In this test, groups of male albino mice (specific pathogen free), weighing 18 to 20 grams, are infected intravenously with Candida albicans A-26. The animals are X-irradiated 24 hours prior to infection at about 50 roentgens per minute for 8 minutes (400 total dose) to reduce immune responses to the infecting organism. At 0, 4, and 24 hours post infection each group of mice is given graded doses subcutaneously of the test compound as a suspension in 33% polyethylene glycol-water. The day of death for each animal is recorded.
mg/kg. Dosages given 0, 4, and 24 hours post injection as suspension of
test compound in 30% PEG--H2 O. Number of mice receiving test
compounds at each dosage level; 6 mice per group. Number of mice in
control (untreated) group: 10 mice per group.
**As measured by increase in survival time of treated animals versus
control, calculated by method of Reed v Mueuch, American J. Hygiene, 27,

[7] = Blood levels after oral administration in mice (bioassay vs. Aspergillus montevidensis A35137); settings: mouse, in vivo; for concentration at 4 h: po; for Blood Levels After Oral Administration In Mice: 240 min
Source text: determined by bioassay vs. Aspergillus montevidensis A35137.

[8] = Toxicity in dog, intravenous administration; type: in vivo; settings: 100 mg/kg per day for five days
[9] = X52, suspension in methanol 1 mg/ml, 7mm disc, 24-48 hours at 25-37° C., read-out: Size of zone of inhibition, Saccharomyces pastoranius X-52
[10] = Neurospora crassa, 846, suspension in methanol 1 mg/ml, 7mm disc, *distinct measurable zone of inhibition with regrowth of organism around disc, read-out: Size of zone of inhibition, Neurospora crassa 846 (*)
[11] = A23, suspension in methanol 1 mg/ml, 7mm disc, 24-48 hours at 25-37° C., read-out: Size of zone of inhibition, Trichophyton mentagraphytes A-23
[12] = mice, subcutaneous, schedule A (40, 20, 15, and 10 mg/kg), 0, 4, 24 hours, increase in survival time, read-out: ED50
[13] = mice, subcutaneous, schedule A (40, 20, 15, and 10 mg/kg), 0, 4, 24 hours
[14] = Neurospora crassa, 846, suspension in methanol 1 mg/ml, 7mm disc, 24-48 hours at 25-37° C., read-out: Size of zone of inhibition, Neurospora crassa 846

Compound	MIC, Candida albicans A-26 (Candida albicans A-26 [4])	MIC, Trichophyton mentagrophytes #6 [5]	Blood Levels After Oral Administration In Mice [7] [ng/mL]	Size of zone of inhibition, Candida albicans A-26 (Candida albicans A-26 [2]) [mm]	zone of inhibition at 1000 µg/mL [1, 9] [mm]	zone of inhibition at 1000 µg/mL (Neurospora crassa 846; [10]) [mm]	zone of inhibition at 1000 µg/mL [3, 11] [mm]	ED50 (Candida albicans A-26 [6]; [12]) [mg/kg]	minimal effective dose (Candida albicans A-26 [6]; [13]) [mg/kg]	zone of inhibition at 1000 µg/mL (Neurospora crassa 846; [14]) [mm]	also measured
CCCCCCCCCCCCC(=O)N[C@H]1C[C@@H](O)[C@@H](O)NC(=O)[C@@H]2[C@@H](O)[C@@H](C)CN2C(=O)[C@H]([C@@H](C)O)NC(=O)[C@H]([C@H](O)[C@@H](O)c2ccc(O)cc2)NC(=O)[C@@H]2C[C@@H](O)CN2C(=O)[C@H]([C@@H](C)O)NC1=O [Example 2, n-Tridecanoyl Derivative of A-30912A Nucleus] (Tridecanoyl-[Orn(4R-OH,5R-OH)]T[Hyp][hTyr(3S-OH,4S-OH)]T[Pro(3S-OH,4S-Me)]; lactam 1-C)	0.625 μg/disc	0.039 μg/disc		30							zone of inhibition at 1000 µg/mL ([1]; X52, read-out: Size of zone of inhibition, Saccharomyces pastoranius X-52): 21 mm; zone of inhibition at 1000 µg/mL (Neurospora crassa 846; Neurospora crassa, 846, read-out: Size of zone of inhibition, Neurospora crassa 846 (*)): 32 mm; zone of inhibition at 1000 µg/mL ([3]; A23, read-out: Size of zone of inhibition, Trichophyton mentagraphytes A-23 (*)): 60 mm; MIC (Candida albicans; read-out: MIC, Candida albicans A26): 0.312 µg/mL (≈ 0.314 µM); MIC (Candida albicans; strain SBH 16, agar dilution, read-out: MIC, Candida albicans SBH 16): 0.625 µg/mL (≈ 0.629 µM); MIC (Candida albicans; strain SBH 28, agar dilution, read-out: MIC, Candida albicans SBH 28): 0.625 µg/mL (≈ 0.629 µM); MIC (Candida albicans; strain SBH 29, agar dilution, read-out: MIC, Candida albicans SBH 29): 0.625 µg/mL (≈ 0.629 µM); MIC (Candida albicans; strain SBH 31, agar dilution, read-out: MIC, Candida albicans SBH 31): 0.625 µg/mL (≈ 0.629 µM); ED50 (Candida albicans A-26 [6]): 34 mg/kg; minimal effective dose (Candida albicans A-26 [6]): 20 mg/kg; concentration at 4 h ([7]; four hours after 416 mg/kg by gavage, suspension in 33% PEG 400-H2O, read-out: Blood Levels After Oral Administration In Mice): 100 ng/mL; SGPT levels [8]: increased SGPT levels; hemolysis [8]: evidence of hemolysis; outward signs of toxicity [8]: no outward signs of toxicity
CC/C=C\C/C=C\C/C=C\CCCCCCCC(=O)N[C@H]1C[C@@H](O)[C@@H](O)NC(=O)[C@@H]2[C@@H](O)[C@@H](C)CN2C(=O)[C@H]([C@@H](C)O)NC(=O)[C@H]([C@H](O)[C@@H](O)c2ccc(O)cc2)NC(=O)[C@@H]2C[C@@H](O)CN2C(=O)[C@H]([C@@H](C)O)NC1=O [Example 11] (X1-[Orn(4R-OH,5R-OH)]T[Hyp][hTyr(3S-OH,4S-OH)]T[Pro(3S-OH,4S-Me)]; lactam 1-C)	1.25 μg/disc	0.039 μg/disc	0	30	16	33	36	> 40	> 40		

Second part, led by results:

MIC, Candida albicans A-26 (Candida albicans A-26 [4])	MIC, Trichophyton mentagrophytes #6 [5]	Blood Levels After Oral Administration In Mice [7] [ng/mL]	Compound	Size of zone of inhibition, Candida albicans A-26 (Candida albicans A-26 [2]) [mm]	zone of inhibition at 1000 µg/mL [1, 9] [mm]	zone of inhibition at 1000 µg/mL (Neurospora crassa 846; [10]) [mm]	zone of inhibition at 1000 µg/mL [3, 11] [mm]	ED50 (Candida albicans A-26 [6]; [12]) [mg/kg]	minimal effective dose (Candida albicans A-26 [6]; [13]) [mg/kg]	zone of inhibition at 1000 µg/mL (Neurospora crassa 846; [14]) [mm]	also measured
2.5 μg/disc and 5.0 μg/disc	1.25 μg/disc and 0.625 μg/disc		CCCCCCCCCCCCCCCCCCC(=O)N[C@H]1C[C@@H](O)[C@@H](O)NC(=O)[C@@H]2[C@@H](O)[C@@H](C)CN2C(=O)[C@H]([C@@H](C)O)NC(=O)[C@H]([C@H](O)[C@@H](O)c2ccc(O)cc2)NC(=O)[C@@H]2C[C@@H](O)CN2C(=O)[C@H]([C@@H](C)O)NC1=O [Example 12] (Nonadecanoyl-[Orn(4R-OH,5R-OH)]T[Hyp][hTyr(3S-OH,4S-OH)]T[Pro(3S-OH,4S-Me)]; lactam 1-C)	19	17	18			≥ 5		zone of inhibition at 1000 µg/mL ([3]; A23, suspension in methanol 1 mg/ml, 7mm disc, *distinct measurable zone of inhibition with regrowth of organism around disc, read-out: Size of zone of inhibition, Trichophyton mentagraphytes A-23 (*)): 22 mm; concentration at 4 h ([7]; 416 mg/kg): 54000 ng/mL
5.0 μg/disc	5 μg/disc	0	CCCCCCCCCCCCCCCCCCCC(=O)N[C@H]1C[C@@H](O)[C@@H](O)NC(=O)[C@@H]2[C@@H](O)[C@@H](C)CN2C(=O)[C@H]([C@@H](C)O)NC(=O)[C@H]([C@H](O)[C@@H](O)c2ccc(O)cc2)NC(=O)[C@@H]2C[C@@H](O)CN2C(=O)[C@H]([C@@H](C)O)NC1=O [Example 13] (Arachidoyl-[Orn(4R-OH,5R-OH)]T[Hyp][hTyr(3S-OH,4S-OH)]T[Pro(3S-OH,4S-Me)]; lactam 1-C)	16	18		16	40	10	13	
5.0 μg/disc	5 μg/disc	0	CCCCCCCCCCCCCCCCCCCCCC(=O)N[C@H]1C[C@@H](O)[C@@H](O)NC(=O)[C@@H]2[C@@H](O)[C@@H](C)CN2C(=O)[C@H]([C@@H](C)O)NC(=O)[C@H]([C@H](O)[C@@H](O)c2ccc(O)cc2)NC(=O)[C@@H]2C[C@@H](O)CN2C(=O)[C@H]([C@@H](C)O)NC1=O [Example 15] (Docosanoyl-[Orn(4R-OH,5R-OH)]T[Hyp][hTyr(3S-OH,4S-OH)]T[Pro(3S-OH,4S-Me)]; lactam 1-C)	12	19		20	> 40	> 40	15	
